Experimental data reported in US20230301982A1, “N'-(2-CHLORO-6-METHYLBENZOYL)-4-METHYL-3-[2-(3-QUINOLYL)ETHYNYL]-BENZOHYDRAZIDE FOR TREATMENT OF ALZHEIMER'S DISEASE” (SUN PHARMA ADVANCED RESEARCH COMPANY LIMITED, priority 2020, published 2023).

Key:
K562 cells = test: In-vitro Cell Proliferation Assay (K562 cells; measure of endogenous Bcr-Abl kinase inhibition); type: cell-based; conditions: for inhibition at 0.0001 µM: Homo sapiens, read-out: % inhibition (at 0.1 nM), 0.1 nM, cell proliferation of K562 cells
Text: (For experimental procedure, refer to the ‘416 publication under In-vitro Cell Proliferation Assay heading).

[1] = system: ECG parameters (QT interval, QTc interval, QTCf interval and heart rate); test: in vivo effect on ECG parameters in guinea pig; conditions: at a therapeutically effective dose
Aβ42 = test: Estimation of Aβ42 and Aβ42/Aβ40 ratio in TgSwDI mice using ELISA; type: in vivo; conditions: o.d., 96 days, TgSwDI mice cortex
Procedure: Female TgSwDI (expresses human APP gene containing Swedish, Dutch, and Iowa mutations) of 5-7 months of age were used for the study. Animals were habituated for handling for one week prior to initiation of dosing. All experiments involving animals were performed in accordance with institutional guidelines for the use and care of animals after approval from the Institutional Animal Ethics Committee (IAEC), Sun Pharma Advanced Research Company (SPARC) Ltd. Mice were housed at an ambient temperature of 25° C. under 12 hours light-dark cycle with free access to food chow and drinking water. Animals were treated with assigned treatments p.o., o.d., for a period of 96 days. […] After completion of treatment phase, mice from each treatment group were perfused with ice-cold phosphate buffered saline (PBS, pH 7.4), brain was excised, cortex was isolated and processed for preparation of lysates as per protocol provided by Invitrogen ELISA kit. Estimation of Aβ42 and Aβ40 were carried out as per the instructions provided by Invitrogen user manual. Ratio of Aβ42/40 was calculated.

Aβ plaque = Aβ plaque load (% area fraction) in cortex of Tg APP/PS1 mice using IHC; type: in vivo; conditions: 30 mg/kg orally once a day for three months
Procedure: (§1) Six month old male APP/PS1 mice which show little overt behavioral or pathological phenotype of AD were used. All experiments involving animals were performed in accordance with institutional guidelines for the use and care of animals after approval from the Institutional Animal Ethics Committee (IAEC), Central Animal Facility, Indian Institute of Science. Only male mice were used for the study and were housed at ambient temperature of 25° C. under 12 hours light-dark cycle with free access to food chow and drinking water. All mice were dosed once a day, orally with placebo for Compound 1 at 30 and 45 mg/kg for a period of three months.
(§2) After completion of treatment phase, mice were subjected to behavioural assessment using CFC test, followed by biochemical estimation of brain Aβ using an enzyme-linked immunosorbent assay (ELISA) and Aβ plaque load using Immunohistochemistry (IHC).
Mouse brains (n=5/treatment) were fixed in 4% (w/v) buffered paraformaldehyde (PFA). The brain tissues were processed for paraffin embedding and serial sections ([…]) were cut using microtome (Leica Biosystems Inc., Buffalo Grove, IL, USA). Sections were de-waxed by xylene treatment followed by a brief wash with chloroform to remove the residual xylene. Endogenous peroxidase activity was blocked with methanol containing hydrogen peroxide (3%, v/v) for 30 minutes. […]

total Aβ = test: Total Aβ content in cortex of Tg APP/PS1 mice using ELISA; type: in vivo
Procedure: as §1, §2
The animals were (n=10/treatment) deeply anesthetized with a mixture of xylazine and ketamine (1:8), perfused with 10 mL of 1x saline for 4 minutes, their brains were excised, homogenized immediately in 0.5 mL ELISA buffer, and centrifuged at 5000xg for 15 minutes at 4° C. to precipitate the pellet. Total Aβ was estimated in the cortex of APP/PS1 mice using ELISA assay kit as per the manufacturer instruction.

[2] = Concentration of compounds in brain and plasma; type: in vivo
Tg APP/PS1 mice = test: Contextual fear conditioning (CFC): freezing behaviour in Tg APP/PS1 mice; type: in vivo; conditions: 24 hours after fear conditioning
Procedure: as §1, §2
The CFC test was performed using an apparatus from San Diego Instruments (CA, USA). The CFC training context was rectangular in shape, identity of the context was maintained with the presence of distinct odor (2% acetic acid, v/v). The conditioning chamber was cleaned with 70% ethanol before and after each session. […] Contextual fear memory was assessed by returning mice to the training context 24 hours after fear conditioning and analyzing freezing during a test period of 2 minutes. […]

hERG channel = hERG channel (Homo sapiens, UniProt Q12809); test: in vitro effect on hERG channel; conditions: at a therapeutically effective dose
[3] = system: ECG parameters (QT interval, QTc interval, QTCf interval and heart rate); test: in vivo effect on ECG parameters in conscious beagle dogs; conditions: at a therapeutically effective dose
[4] = 30 mg/kg orally once a day for three months
[5] = 45 mg/kg orally once a day for three months

hERG channel, sequence (Q12809 whole entry): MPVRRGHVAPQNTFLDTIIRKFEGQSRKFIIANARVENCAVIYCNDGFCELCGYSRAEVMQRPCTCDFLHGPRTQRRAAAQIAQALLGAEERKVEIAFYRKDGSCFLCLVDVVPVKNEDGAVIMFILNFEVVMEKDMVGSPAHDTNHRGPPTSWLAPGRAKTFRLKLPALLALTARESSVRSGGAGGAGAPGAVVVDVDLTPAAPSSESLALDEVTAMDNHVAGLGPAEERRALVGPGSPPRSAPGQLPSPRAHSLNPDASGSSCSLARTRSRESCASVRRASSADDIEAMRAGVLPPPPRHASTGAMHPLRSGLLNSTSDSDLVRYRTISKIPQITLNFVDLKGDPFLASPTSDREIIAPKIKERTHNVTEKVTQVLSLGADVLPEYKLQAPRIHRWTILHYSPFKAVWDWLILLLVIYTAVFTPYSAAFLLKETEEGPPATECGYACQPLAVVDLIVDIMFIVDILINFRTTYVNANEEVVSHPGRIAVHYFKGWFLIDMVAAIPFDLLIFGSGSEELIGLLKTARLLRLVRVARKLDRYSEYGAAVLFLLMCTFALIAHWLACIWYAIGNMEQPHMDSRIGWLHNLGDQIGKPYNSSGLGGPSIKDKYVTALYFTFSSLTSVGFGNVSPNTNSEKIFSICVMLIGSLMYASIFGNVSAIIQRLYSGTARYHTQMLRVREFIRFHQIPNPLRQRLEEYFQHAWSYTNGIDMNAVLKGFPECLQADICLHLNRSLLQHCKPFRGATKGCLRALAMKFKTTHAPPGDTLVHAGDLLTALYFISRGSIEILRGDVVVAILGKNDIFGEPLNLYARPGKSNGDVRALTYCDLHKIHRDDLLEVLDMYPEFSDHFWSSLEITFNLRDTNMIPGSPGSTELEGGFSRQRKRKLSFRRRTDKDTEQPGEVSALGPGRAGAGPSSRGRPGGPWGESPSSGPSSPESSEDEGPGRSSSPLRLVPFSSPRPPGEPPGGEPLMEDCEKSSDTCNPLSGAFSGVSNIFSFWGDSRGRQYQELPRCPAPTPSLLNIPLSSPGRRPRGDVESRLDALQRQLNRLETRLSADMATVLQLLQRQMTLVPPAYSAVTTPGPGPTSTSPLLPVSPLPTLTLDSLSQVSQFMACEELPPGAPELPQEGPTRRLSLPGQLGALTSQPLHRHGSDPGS

Cc1cccc(Cl)c1C(=O)NNC(=O)c1cccc(C#Cc2cnc3ccccc3c2)c1 [Compound 1.59 of the ‘416 publication]
inhibition at 0.0001 µM (K562 cells): 2%

Cc1ccc(C(=O)NNC(=O)c2c(C)cccc2Cl)cc1C#Cc1ccc2ncccc2c1 [Compound 1.10 of the ‘416 publication]
inhibition at 0.0001 µM (K562 cells): 0%

Cc1ccc(C(=O)NNC(=O)c2c(C)cccc2Cl)cc1C#Cc1cnc2ccc(F)cc2c1 [Compound 1.55 of the ‘416 publication]
inhibition at 0.0001 µM (K562 cells): 0%

Cc1ccc(C(=O)NNC(=O)c2c(C)cccc2Cl)cc1C#Cc1cnc2ccccc2c1 [Compound 1, N′-(2-chloro-6-methylbenzoyl)-4-methyl-3-[2-(3-quinolyl)ethynyl]-benzohydrazide]
cardiovascular side effects: in vivo effect on ECG parameters (QT, QTc, QTCf interval, heart rate) [1]: devoid of cardiovascular side effects
effect on Aβ42 content compared to placebo group (Aβ42; 30 mg/kg p.o.): statistically significant
effect on Aβ42 content compared to placebo group (Aβ42; 45 mg/kg p.o.): statistically significant
Aβ42/Aβ40 ratio, trend over doses (Aβ42; 15, 30, and 45 mg/kg p.o.): dose-dependent reduction
Aβ42 content, trend over doses (Aβ42; 15, 30, and 45 mg/kg p.o.): dose-dependent reduction
Aβ plaque (% area fraction) in cortex compared to placebo (Aβ plaque): significantly reduced
total Aβ content in cortex compared to placebo treated group (total Aβ; [4]): significant reduction
total Aβ content in cortex compared to placebo treated group (total Aβ; [5]): significant reduction
inhibition at 0.0001 µM (K562 cells): 37%
potency (inhibition of K562 cell proliferation) (K562 cells; at 0.1 nM, Compound 1 versus similar compounds from the ‘416 publication): significantly higher
higher ratio of brain to plasma concentration compared to nilotinib ([2]; at 1 hour, versus nilotinib): about 40 times
brain penetration compared with dasatinib ([2]; versus dasatinib): significantly better brain penetration
ratio of concentration in brain to plasma as compared to nilotinib or dasatinib ([2]; versus nilotinib or dasatinib): significantly higher
% freezing of mice (CFC) compared to placebo treated group (Tg APP/PS1 mice; [4]): significant increase
% freezing of mice (CFC) compared to placebo treated group (Tg APP/PS1 mice; [5]): significant increase
cardiovascular side effects: in vitro effect on hERG channel (hERG channel): devoid of cardiovascular side effects
cardiovascular side effects: in vivo effect on ECG parameters (QT, QTc, QTCf interval, heart rate) [3]: devoid of cardiovascular side effects

Cc1cccc(Cl)c1C(=O)NNC(=O)c1ccc(F)c(C#Cc2cnc3ccccc3c2)c1 [Compound 1.21 of the ‘416 publication]
inhibition at 0.0001 µM (K562 cells): 6%

Cc1ccc(C(=O)NNC(=O)c2c(C)cccc2Cl)cc1C#Cc1cnc2ccc(Cl)cc2c1 [Compound 1.50 of the ‘416 publication]
inhibition at 0.0001 µM (K562 cells): 0%

Cc1cn(-c2cc(NC(=O)c3ccc(C)c(Nc4nccc(-c5cccnc5)n4)c3)cc(C(F)(F)F)c2)cn1 [Nilotinib, nilotinib, reference compound]
effect on Aβ42 content compared to placebo group (Aβ42; 30 mg/kg p.o.): no statistically significant reduction
